Experimental data as given in publication PMC11438102, “Modulation of cannabinoid receptor 2 alters neuroinflammation and reduces formation of alpha-synuclein aggregates in a rat model of nigral synucleinopathy” (Journal of Neuroinflammation, 2024).
Entries after “also recorded” stand apart in the source; their conditions may differ.

Experiments:
[1] = test system: deep cervical lymph nodes (DCLN) and splenocytes; assay: Flow cytometry of deep cervical lymph nodes and splenocytes (high cohort); assay type: in vivo, rat; conditions: 8-week endpoint
[2] = assay type: in vivo; conditions: 6 mg/kg i.p. daily, ~2 h post-dose
Method: One week after surgery, animals were randomly selected to receive daily systemic injections of either SMM-189 (intraperitoneal (i.p.), 6 mg/kg, n = 12) or vehicle (i.p., n = 12) and followed for 8 weeks (Figs. 1; n = 2 rats per group were removed due to poor nigral targeting). […] Plasma was also collected at baseline, 4 and 8 weeks post-AAV-hAsyn injections and CSF collected prior to perfusion to measure levels of SMM-189.
Blood was collected from the tail vein at baseline and every 4 weeks post-AAV (~ 2 h post-treatment injection) for plasma to measure SMM-189 levels in low and high cohorts and for PBMCs to immunophenotype circulating immune cells in the high cohort animals. […] Tails were cleaned with ethanol and approximately 400μL of blood drawn from the lateral tail vein using a low dead space 25ga needle and syringe and blood immediately placed into an EDTA tube.
CSF was collected at endpoint from low cohort animals. […] A sterile pulled micropipettes attached to tubing and a syringe punctured into the cisterna magna and clean CSF was aspirated and collected in a 0.2mL Eppendorf and stored at -80°C.
A total of 50 µL aliquots of plasma or CSF were prepared by protein precipitation with 100 µL acetonitrile (spiked with the internal standard d^5-SMM-189) followed by centrifugation at 10,000g for 10 min at 4°C. Chromatographic separation of the supernatant was performed using a Zorbax SB-C18 3.5 μm 4.6 × 150 mm and a Shimadzu HPLC Nexera XR with Solvent Delivery Module LC-20ADXR, CTO-20AC prominence column oven (temperature 40 °C), a DGU-20A5R Degassing Unit, and a SIL-20ACXR autosampler. The aqueous mobile phase (A) was 95% water and 5% acetonitrile (B) was 100% acetonitrile.

[3] = test system: IBA1, CD68, CD163, MHCII in substantia nigra; assay: Immunohistochemistry/immunofluorescence of immune cell markers in substantia nigra; assay type: in vivo; conditions: rat low cohort, 6 mg/kg i.p. daily 7 weeks, vs vehicle
Method: Brains were post-fixed in 4%PFA for 48 h and transferred to 30% sucrose and cut at 40 μm on a freezing microtome. In brief, endogenous peroxidase was quenched with 3% hydrogen peroxide, blocked with 8% normal serum, avidin (Vector Cat#SP-2001) and 0.1% Triton-X and incubated overnight at 4°C with biotin (Vectorlabs Cat#SP-2001), normal serum and primary antibodies specific for Asyn (Clone 4B12; BioLegend Cat# 807801, RRID: AB_2564730), pSer129 Asyn (Clone EP1536Y; Abcam Cat# ab51253, RRID: AB_869973), CD68 (Bio-Rad Cat# MCA341R, RRID: AB_2291300), MHCII (Bio-Rad Cat# MCA46GA, RRID: AB_567369), and CD163 (Bio-Rad Cat# MCA342A, RRID: AB_2074557). Tissue was incubated in appropriate biotinylated secondary antibodies (1:200), amplified with Vectastain ABC kit (Vectorlabs Cat#PK-6100) and developed with diaminobenzidine tablets or diaminobenzidine drop kit with nickel (Vector Cat#SK-4100) for CD68 immunostaining.
Tissue was blocked with 5% normal serum in TBS + 0.25% Triton-X and further incubated overnight at 4°C with primary antibodies specific for IBA1 (FUJIFILM Wako Pure Chemical Corporation Cat# 019-19741, RRID: AB_839504) and tyrosine hydroxylase (ImmunoStar Cat# 22941, RRID: AB_572268) to identify microglia in the substantia nigra or tyrosine hydroxylase (Millipore Cat# AB152, RRID: AB_390204) and Asyn (Clone 4B12; BioLegend Cat# 807801, RRID: AB_2564730) to evaluate accuracy of stereotaxic injection targets. Tissue was incubated in secondary antibodies conjugated to appropriate fluorophores for 2 h at room temperature and mounted tissue with Vectashield, an aqueous mounting media with DAPI (Vectorlabs Cat#H-2000).
IBA1-positive total immune cell counts and area of immunoreactivity (ir) were quantified using Nikon NIS elements software. Four fluorescent z-stacks of IBA1 stained nigra were collected from images of lesioned and non-lesioned nigra from targeted low cohort animals using a Nikon Eclipse 90i microscope and maximum project images were used for quantification. CD68-ir and CD163-ir was quantified from two to three microphotographs from each animal throughout the substantia nigra using ImageJ particle count analysis. Microphotographs of the nigra immunochemically stained for either Asyn, pSer129 Asyn and proteinase K-resistant Asyn were quantified using Image J (version 1.54f). Regions of Interest (ROIs) were drawn on two to three images throughout the nigra and optical density measurements collected and averaged for each animal. Measurements were normalized to the vehicle group so that data from all cohorts could be combined.

RAW264.7 macrophages = assay: Phagocytosis assay with pHrodo green E. coli bioparticles; assay type: cell-based; conditions: vs vehicle; for integrated density of GFP (phagocytosis of E. coli bioparticles): 100ng/mL LPS; for phagocytosis of E. coli bioparticles: 1 μg/mL LPS
Method: The RAW264.7 macrophage cells (ATCC Cat# TIB-71, RRID: CVCL_0493) were grown in sterile media which consisted of DMEM high glucose, 10% FBS, 2mM L-glutamine, 1x Pen-strep and 1x sodium pyruvate in a humidified 5% CO2 incubator at 37°C. RAW264.7 were maintained in […] tissue culture flasks and plated at a density of 1 × 10^4 cells in triplicate in 96-well plates for assays. Cells were stimulated with either lipopolysaccharide (LPS O111:B4; Sigma Cat#L2630) at 100ng/mL or 1000ng/mL (750EU/mL or 7500 EU/mL, respectively). One hour prior to this stimulation the cells were pre-treated with the CB2 inverse agonist SMM-189 at 3μM or 7 μm or its vehicle. Specifically for cell culture experiments, SMM-189 was formulated with 40% ethanol (v/v), 20% tween-20 (v/v) and 40% saline (v/v). A phagocytosis assay was conducted 24 h after LPS.
The phagocytosis assay was performed using pHrodo green E. coli bioparticles (Invitrogen Cat# P35366) according to the manufacturer’s instructions. Five images per well were then collected every 30 min for 24 h on an EVOS M7000 microscope (Invitrogen, ThermoFisher Scientific). The cells were maintained for this duration using an on-stage incubator kept at 37°C and 5% CO2. Analysis of the collected images was performed using EVOS Celleste software (version 5.0), which counted the cells and then measured the integrated optical density of fluorescence within each well over the 24-hour time course. Analysis was conducted on the average integrated optical density across triplicate wells. Results were consistent across duplicate experimental replicates.

CB2 = test system: CB2; parameters: method as in PMID 27766068; conditions: microglia; cited from earlier work

O=C(c1ccccc1)c1cc(O)c(-c2cc(Cl)cc(Cl)c2)c(O)c1 [SMM-189]
DCLN myeloid populations including classical CD43-His48+ or CD11b+ monocytes [1]: No frequency difference
Tregs (foxp3+CD4+) in DCLN [1]: significant reduction
CD4 to CD8 lymphocyte ratio in DCLN ([1]; p = 0.0503): trend was found in the CD4 to CD8 lymphocyte ratio to be decreased
CD11b+ myeloid splenocytes ([1]; p = 0.0541): trend to increase
CD4 to CD8 lymphocyte ratio in spleen ([1]; p = 0.0962): no effect; also recorded: trend was found in the CD4 to CD8 lymphocyte ratio to be decreased
SMM-189 plasma levels compared to vehicle ([2]; rat high cohort, 4 and 8 weeks): increased
level of plasma SMM-189 compared to vehicle-treated rats ([2]; rat low cohort, 4 and 8 weeks): Significant increases
Levels of SMM-189 in the CSF, average ± SEM ([2]; rat low cohort, endpoint): 0.44 ± 0.22 ng/mL
IBA1 counts and area in nigra, effect of treatment [3]: not a significant effect of treatment
intensity or area coverage of MHCII in the lesioned nigra [3]: No differences
nigral CD68-ir particle counts ([3]; AAV-injected nigra): increased
CD163 in the nigra ([3]; lesioned nigra): decreased
integrated density of GFP (phagocytosis of E. coli bioparticles) (RAW264.7 macrophages; pre-treatment 3 μm, p = 0.0024): significantly increased
integrated density of GFP (phagocytosis of E. coli bioparticles) (RAW264.7 macrophages; pre-treatment 7 μm, p < 0.0001): significantly increased
phagocytosis of E. coli bioparticles (RAW264.7 macrophages; 3 μm): intensified
phagocytosis of E. coli bioparticles (RAW264.7 macrophages; 7 μm): intensified
levels of nuclear phosphorylated cAMP response-element binding protein (pCREB) (CB2): increased
